Legend:
[1] = Antiproliferative activity against human COLO205 cells assessed as growth inhibition after 48 hrs by sulforhodamine B assay; format: functional; details: COLO 205, 48 h; for CC50: read-out: LC50 (the source's name)
[2] = Antiproliferative activity against human HCC2998 cells assessed as growth inhibition after 48 hrs by sulforhodamine B assay; format: functional; details: HCC 2998, 48 h; for CC50: read-out: LC50 (the source's name)
[3] = Antiproliferative activity against human HL-60(TB) cells assessed as growth inhibition after 48 hrs by sulforhodamine B assay; format: functional; details: HL-60, 48 h
[4] = Antiproliferative activity against human RXF393 cells assessed as cell growth at 10^-4 M after 48 hrs by sulforhodamine B assay; format: functional; details: RXF 393, 48 h, read-out: Activity
[5] = Antiproliferative activity against human OVCAR3 cells assessed as cell growth at 10^-8 M after 48 hrs by sulforhodamine B assay; format: functional; details: OVCAR-3, 48 h, read-out: Activity
T47D = assay: Antiproliferative activity against human T47D cells assessed as growth inhibition after 48 hrs by sulforhodamine B assay; format: functional; details: for CC50: read-out: LC50 (the source's name)
[6] = Antiproliferative activity against human DU145 cells assessed as cell growth at 10^-8 M after 48 hrs by sulforhodamine B assay; format: functional; details: DU-145, 48 h, read-out: Activity
NCI-H322M = assay: Antiproliferative activity against human NCI-H322M cells assessed as growth inhibition after 48 hrs by sulforhodamine B assay; format: functional
[7] = Antiproliferative activity against human Hs 578T cells assessed as cell growth at 10^-8 M after 48 hrs by sulforhodamine B assay; format: functional; details: read-out: Activity
Malme-3M = assay: Antiproliferative activity against human MALME-3M cells assessed as cell growth at 10^-8 M after 48 hrs by sulforhodamine B assay; format: functional; details: read-out: Activity
[8] = Antiproliferative activity against human LOXIMVI cells assessed as cell growth at 10^-8 M after 48 hrs by sulforhodamine B assay; format: functional; details: LOX IMVI, read-out: Activity
MDA-MB-231 [9] = assay: Antiproliferative activity against human MDA-MB-231 cells assessed as cell growth at 10^-8 M after 48 hrs by sulforhodamine B assay; format: functional; details: MDA-MB-231, 48 h, read-out: Activity
HT-29 = assay: Antiproliferative activity against human HT-29 cells assessed as cell growth at 10^-8 M after 48 hrs by sulforhodamine B assay; format: functional; details: HT-29, 48 h, read-out: Activity
[10] = Antiproliferative activity against human HL-60(TB) cells assessed as cell growth at 10^-6 M after 48 hrs by sulforhodamine B assay; format: functional; details: HL-60, 48 h, read-out: Activity
SR = assay: Antiproliferative activity against human SR cells assessed as growth inhibition after 48 hrs by sulforhodamine B assay; format: functional
MDA-MB-231 [11] = assay: Antiproliferative activity against human MDA-MB-231 cells assessed as growth inhibition after 48 hrs by sulforhodamine B assay; format: functional; details: MDA-MB-231, 48 h; for CC50: read-out: LC50 (the source's name)
[12] = Antiproliferative activity against human TK10 cells assessed as cell growth at 10^-8 M after 48 hrs by sulforhodamine B assay; format: functional; details: TK-10, 48 h, read-out: Activity
MDA-MB-468 = assay: Antiproliferative activity against human MDA-MB-468 cells assessed as cell growth at 10^-4 M after 48 hrs by sulforhodamine B assay; format: functional; details: MDA-MB-468, 48 h, read-out: Activity
NCI-H522 = assay: Antiproliferative activity against human NCI-H522 cells assessed as cell growth at 10^-6 M after 48 hrs by sulforhodamine B assay; format: functional; details: NCI-H522, 48 h, read-out: Activity
CYP1A2 = target: T1, CYP1A2 (Homo sapiens, UniProt P05177); assay: Inhibition of recombinant human CYP1A2 assessed as remaining enzyme activity using CYP1A2 blue as substrate at 10 uM after 5 mins in presence of NADP by fluorescence plate reader analysis; format: ADME; details: recombinant human CYP1A2, probe CYP1A2 blue, read-out: Activity
T1 sequence (P05177 whole entry): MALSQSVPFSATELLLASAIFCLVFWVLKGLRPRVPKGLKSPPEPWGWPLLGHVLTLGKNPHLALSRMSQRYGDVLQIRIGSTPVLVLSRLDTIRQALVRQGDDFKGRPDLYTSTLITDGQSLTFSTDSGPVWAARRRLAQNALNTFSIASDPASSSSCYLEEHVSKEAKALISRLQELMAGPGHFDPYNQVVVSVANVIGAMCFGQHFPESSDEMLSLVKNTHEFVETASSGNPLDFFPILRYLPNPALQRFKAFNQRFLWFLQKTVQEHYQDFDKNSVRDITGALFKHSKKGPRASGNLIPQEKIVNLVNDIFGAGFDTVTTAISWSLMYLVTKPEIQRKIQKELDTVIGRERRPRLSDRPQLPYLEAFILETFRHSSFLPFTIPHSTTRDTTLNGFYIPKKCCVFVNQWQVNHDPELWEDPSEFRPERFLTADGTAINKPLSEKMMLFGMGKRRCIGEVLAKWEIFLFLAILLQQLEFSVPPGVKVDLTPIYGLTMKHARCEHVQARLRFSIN

NCI-H23 [13] = assay: Antiproliferative activity against human NCI-H23 cells assessed as cell growth at 10^-7 M after 48 hrs by sulforhodamine B assay; format: functional; details: NCI-H23, 48 h, read-out: Activity
A549 = assay: Antiproliferative activity against human A549/ATCC cells assessed as cell growth at 10^-4 M after 48 hrs by sulforhodamine B assay; format: functional; details: A549, 48 h, read-out: Activity
MCF7 = assay: Antiproliferative activity against human MCF7 cells assessed as growth inhibition after 48 hrs by sulforhodamine B assay; format: functional; details: MCF7, 48 h; for CC50: read-out: LC50 (the source's name)
MDA-MB-435 = assay: Antiproliferative activity against human MDA-MB-435 cells assessed as cell growth at 10^-8 M after 48 hrs by sulforhodamine B assay; format: functional; details: MDA-MB-435, 48 h, read-out: Activity
A498 = assay: Antiproliferative activity against human A498 cells assessed as cell growth at 10^-4 M after 48 hrs by sulforhodamine B assay; format: functional; details: A498, 48 h, read-out: Activity
NCI-H23 [14] = assay: Antiproliferative activity against human NCI-H23 cells assessed as cell growth at 10^-6 M after 48 hrs by sulforhodamine B assay; format: functional; details: NCI-H23, 48 h, read-out: Activity
KM12 = assay: Antiproliferative activity against human KM12 cells assessed as cell growth at 10^-6 M after 48 hrs by sulforhodamine B assay; format: functional; details: KM12, 48 h, read-out: Activity
[15] = Antiproliferative activity against human HL-60(TB) cells assessed as cell growth at 10^-4 M after 48 hrs by sulforhodamine B assay; format: functional; details: HL-60, 48 h, read-out: Activity
[16] = Antiproliferative activity against human MOLT4 cells assessed as cell growth at 10^-6 M after 48 hrs by sulforhodamine B assay; format: functional; details: MOLT-4, 48 h, read-out: Activity

With `CNC(=O)c1cc(Oc2ccc3nc(NC(=O)c4cc(C(F)(F)F)cc(C(F)(F)F)c4)sc3c2)ccn1` the GI50 [1] was 2.82 µM, the TGI [1] was 8.21 µM and the CC50 [1] was 32.8 µM. It also gave a GI50 [2] of 6.63 µM, a TGI [2] of 24.7 µM and a CC50 [2] of 79.4 µM. For the same molecule, the GI50 [3] was 2.49 µM, the TGI [3] was 5.11 µM and the CC50 ([3]; read-out: LC50 (the source's name)) was over 100 µM. For the same molecule, the growth at 100 µM [4] was -78%, the growth at 0.01 µM [5] was 104% and the GI50 (T47D) was 3.04 µM. The TGI (T47D) was 9.18 µM, the CC50 (T47D) was over 100 µM and the growth at 0.01 µM [6] was 105%. The GI50 (NCI-H322M) was 3.7 µM, the LC50 (50% lethal concentration) (NCI-H322M) was over 100 µM and the TGI (NCI-H322M) was 19.8 µM. For the same molecule, the growth at 0.01 µM [7] was 94%, the growth at 0.01 µM (Malme-3M) was 94% and the growth at 0.01 µM [8] was 97%. It also gave a growth at 0.01 µM (MDA-MB-231 [9]) of 108%, a growth at 0.01 µM (HT-29) of 108% and a growth at 1 µM [10] of 114%. It also gave a GI50 (SR) of 3.37 µM, an LC50 (SR) of over 100 µM and a TGI (SR) of 15 µM. For the same molecule, the GI50 (MDA-MB-231 [11]) was 2.88 µM, the TGI (MDA-MB-231 [11]) was 6.63 µM and the CC50 (MDA-MB-231 [11]) was 39.8 µM. The growth at 0.01 µM [12] was 95%, the growth at 100 µM (MDA-MB-468) was -30% and the growth at 1 µM (NCI-H522) was 96%. It also gave an activity at 5 min, 10 µM (CYP1A2) of 98.3%, a growth at 0.1 µM (NCI-H23 [13]) of 95% and a growth at 100 µM (A549) of -67%. It also gave a GI50 (MCF7) of 3.37 µM, a TGI (MCF7) of 18 µM and a CC50 (MCF7) of over 100 µM. It also gave a growth at 0.01 µM (MDA-MB-435) of 101%, a growth at 100 µM (A498) of -65% and a growth at 1 µM (NCI-H23 [14]) of 89%. It also gave a growth at 1 µM (KM12) of 86%, a growth at 100 µM [15] of -45% and a growth at 1 µM [16] of 85%.
`CNC(=O)c1cc(Oc2ccc(NC(=O)Nc3ccc(Cl)c(C(F)(F)F)c3)cc2)ccn1` [SORAFENIB] gave a GI50 [1] of 2 µM, a TGI [1] of 7.94 µM and a CC50 [1] of 31.6 µM. It also gave a GI50 [2] of 3.16 µM, a TGI [2] of 3.16 µM and a CC50 [2] of 6.31 µM. The GI50 [3] was 1.58 µM, the TGI (T47D) was 7.94 µM and the CC50 (T47D) was 31.6 µM. It also gave a GI50 (NCI-H322M) of 2.51 µM, a TGI (NCI-H322M) of 10 µM and a GI50 (SR) of 3.16 µM. The TGI (SR) was 100 µM, the GI50 (MDA-MB-231 [11]) was 1.26 µM and the TGI (MDA-MB-231 [11]) was 3.98 µM. It also gave a CC50 (MDA-MB-231 [11]) of 20 µM, a GI50 (MCF7) of 2.51 µM and a TGI (MCF7) of 7.94 µM. It also gave a CC50 (MCF7) of 50.1 µM.

Reference: ChEMBL document CHEMBL3797052 (Eur J Med Chem, 2016)
